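Compound exposure: 48 hours, 5 concentrations, 96-well plates. Here, GI50 denotes the concentration required for 50% inhibition of growth.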 The source made the active and inactive calls. Cut-off read from the data, not from the text of the source: active = GI50 up to about 1.1 µM and inactive = higher.
Experiments:
Assay in all cases: NCI-60 cell line screen, 48 h
OVCAR-8 = system: OVCAR-8
U-251 = system: U-251
EKVX = system: EKVX
IGROV-1 = system: IGROV-1
HCC 2998 = system: HCC 2998
DMS-273 = system: DMS-273
NCI-H460 = system: NCI-H460
RPMI-8226 = system: RPMI-8226
SNB-19 = system: SNB-19
HT-29 = system: HT-29
SW-620 = system: SW-620
NCI-H23 = system: NCI-H23
NCI-H226 = system: NCI-H226
RXF 393 = system: RXF 393
NCI-H522 = system: NCI-H522
SK-OV-3 = system: SK-OV-3
SK-MEL-5 = system: SK-MEL-5

Measured: GI50

O=C1CCC2(O)c3ccccc3C2Cc2ccccc21 (configuration not stated)
inactive: OVCAR-8 > 100 µM | U-251 > 100 µM | EKVX > 100 µM | IGROV-1 > 100 µM | HCC 2998 > 100 µM | DMS-273 > 100 µM | NCI-H460 > 100 µM | RPMI-8226 > 100 µM | SNB-19 > 100 µM | HT-29 > 100 µM | SW-620 > 100 µM | NCI-H23 > 100 µM | NCI-H226 > 100 µM | RXF 393 > 100 µM

COC(=O)CCCCCOS(=O)(=O)c1ccc(C)cc1
inactive: OVCAR-8 > 100 µM | U-251 > 100 µM | EKVX > 100 µM | IGROV-1 > 100 µM | HCC 2998 > 100 µM | DMS-273 > 100 µM | NCI-H460 > 100 µM | SNB-19 > 100 µM | HT-29 > 100 µM | SW-620 > 100 µM | NCI-H522 > 100 µM | NCI-H23 > 100 µM | RXF 393 > 100 µM | SK-OV-3 > 100 µM | SK-MEL-5 > 100 µM

O=C(/C=C\c1cccc2ccccc12)c1ccc(Br)cc1
inactive: OVCAR-8 17.5 µM | U-251 16.1 µM | EKVX 24 µM | IGROV-1 23.6 µM | HCC 2998 17.5 µM | DMS-273 16.7 µM | NCI-H460 18.4 µM | RPMI-8226 14.8 µM | SNB-19 25.7 µM | HT-29 18.2 µM | SW-620 12.1 µM | NCI-H522 21 µM | NCI-H23 34 µM | NCI-H226 50.7 µM | SK-OV-3 30.7 µM | SK-MEL-5 19.7 µM

N/N=C(/C(=O)Nc1cccc(Cl)c1)C(C(=O)c1ccc(O)cc1O)C1OC(=O)c2ccccc21 (configuration not stated)
inactive: OVCAR-8 > 100 µM | U-251 46.9 µM | EKVX > 100 µM | IGROV-1 > 100 µM | HCC 2998 > 100 µM | DMS-273 65.9 µM | NCI-H460 52.2 µM | RPMI-8226 90.6 µM | SNB-19 68.2 µM | HT-29 > 100 µM | SW-620 > 100 µM | NCI-H522 71 µM | NCI-H23 65.5 µM | NCI-H226 95.1 µM | SK-OV-3 > 100 µM | SK-MEL-5 > 100 µM

CCOC(=O)C1=C(Nc2ccccc2)SC/C1=N\NC(=O)Cc1ccccc1
inactive: OVCAR-8 > 100 µM | U-251 > 100 µM | EKVX > 100 µM | IGROV-1 > 100 µM | HCC 2998 > 100 µM | DMS-273 > 100 µM | NCI-H460 > 100 µM | SNB-19 > 100 µM | HT-29 > 100 µM | SW-620 > 100 µM | NCI-H522 > 100 µM | NCI-H23 > 100 µM | NCI-H226 > 100 µM | RXF 393 > 100 µM | SK-OV-3 > 100 µM | SK-MEL-5 > 100 µM

O=C(NC12CC3CC(CC(C3)C1)C2)C(=O)c1c[nH]c2ccccc12
inactive: U-251 13.5 µM | EKVX 17.6 µM | IGROV-1 15.8 µM | HCC 2998 14.8 µM | DMS-273 14.8 µM | NCI-H460 12.1 µM | RPMI-8226 12.2 µM | SNB-19 17.9 µM | HT-29 2.83 µM | NCI-H522 16.3 µM | NCI-H23 14.7 µM | NCI-H226 > 10 µM | SK-OV-3 16 µM | SK-MEL-5 15.4 µM

COc1ccc(CN(O)C2C(CO)OC(n3cc(I)c(=O)[nH]c3=O)C2O)cc1 (configuration not stated)
inactive: OVCAR-8 > 100 µM | U-251 > 100 µM | EKVX > 100 µM | IGROV-1 > 100 µM | HCC 2998 > 100 µM | DMS-273 > 100 µM | NCI-H460 > 100 µM | RPMI-8226 > 100 µM | SNB-19 > 100 µM | HT-29 > 100 µM | SW-620 > 100 µM | NCI-H522 > 100 µM | NCI-H23 > 100 µM | RXF 393 > 100 µM | SK-OV-3 > 100 µM | SK-MEL-5 > 100 µM

From ChEMBL document CHEMBL1201862, “PubChem BioAssay data set” (2004)
